Read-outs that look alike come from different tables or passages of the source.
Key:
[1] = target: Aβ(1-42) Oligomers/Polymers (Homo sapiens, UniProt P05067); assay: Biacore (SPR) screening on immobilized Aβ42 oligomers/soluble polymers; type: binding; parameters: Binding to oligomers/polymers (Aβ1-42): key to the marks not given beside the values; settings: for BINDING LEVELS TO Aβ(1-42) Oligomers/Polymers: screening compounds at 10 uM; for Binding to oligomers/polymers (Aβ1-42): carbazole-based hits
Aβ(1-42) Fibrils = Aβ(1-42) Fibrils (Homo sapiens, UniProt P05067); assay: Biacore (SPR) screening on immobilized Aβ42 fibrils; type: binding; settings: for BINDING LEVELS TO Aβ(1-42) Fibrils: screening compounds at 10 uM; for Binding to fibrils (Aβ1-42): carbazole-based hits;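 on BINDING LEVELS TO Aβ(1-42) Fibrils: minus means no binding and more plus signs mean higher affinity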
[2] = target: T1, Amyloid (AD patient's brain slice) (Homo sapiens, UniProt P05067); assay: IC50 determination with [18F]-PiB by ex vivo competition assay using autoradiography staining; type: binding
T1 construct: The brain slices were 20 um thick
Text: Ex Vivo Competition Assay Using Amyloid (AD patient's brain slice) Autoradiography Staining

[3] = test system: Amyloid (AD brain slices); assay: [18F]-CB001 competition studies on AD brain slices; type: binding, human; settings: cold competitor, increasing concentrations
[4] = determination 4, vs [18F]-PiB, read-out: IC50 4
[5] = determination 5, vs [18F]-PiB, read-out: IC50 5
[6] = determination 6, vs [18F]-PiB, read-out: IC50 6
[7] = determination 7, vs [18F]-PiB, read-out: IC50 7
[8] = mean of determinations, vs [18F]-PiB, read-out: Average IC50
[9] = determination 1, vs [18F]-PiB, read-out: IC50 1
[10] = determination 3, vs [18F]-PiB, read-out: IC50 3
[11] = determination 13, vs [18F]-PiB, read-out: IC50 13

T1 sequence (P05067 672-711 limits assumed): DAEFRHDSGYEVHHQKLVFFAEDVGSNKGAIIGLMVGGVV
Aβ(1-42) Fibrils, sequence (P05067 672-713 limits assumed): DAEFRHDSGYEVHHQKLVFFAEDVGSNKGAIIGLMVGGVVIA
Aβ(1-42) Oligomers/Polymers, sequence (P05067 672-713 limits assumed): as above

Row | Compound | BINDING LEVELS TO Aβ(1-42) Oligomers/Polymers [1] | BINDING LEVELS TO Aβ(1-42) Fibrils (Aβ(1-42) Fibrils) | further results
1 | Oc1cnc(Cl)c2ccccc12 | + | − | 
2 | Nc1ccc(O)c2ncccc12 | ++ | + | 
3 | O=c1c(O)c(-c2cccc(O)c2)oc2ccc(O)cc12 | ++++ | ++ | 
4 | O=c1cc(-c2ccccc2)oc2cc(O)ccc12 | + | + | 
5 | Nc1cccc(-c2cn(-c3cc(Cl)cc(Cl)c3)nn2)c1 | + | + | 
6 | C[S+]([O-])c1ccc(-c2nc(-c3ccc(F)cc3)c(-c3ccncc3)[nH]2)cc1 (stereo not drawn) | ++ | + | 
7 | Fc1ccc(-c2cn(-c3cccc(C(F)(F)F)c3)nn2)c(F)c1 | + | + | 
8 | CCOc1ccc2c(=O)c(Oc3ccccc3)c(C)oc2c1 | + | + | 
9 | COc1ccc2oc(-c3ccc(OC)c(OC)c3)c(OC)c(=O)c2c1 | +++ | + | 
10 | Cc1cc(C)c2oc(-c3cccs3)c(O)c(=O)c2c1 | + | − | 
11 | O=c1cc(-c2ccccc2)oc2ccc(O)cc12 | ++ | + | 
12 | Cc1cc(C)c2oc(-c3ccco3)c(O)c(=O)c2c1 | + | − | 
13 | Cc1oc2cc(O)ccc2c(=O)c1-c1nncn1-c1ccccc1 | ++ | + | 
14 | Cc1c(-c2ccccc2)c(=O)oc2cc(O)ccc12 | + | − | 
15 | O=CNc1ccc2c(c1)[nH]c1cc(OCCF)ccc12 [CB-012, N-(7-(2-fluoroethoxy)-9H-carbazol-2-yl)formamide] |  |  | IC50 [2, 4]: 610 nM; IC50 [2, 5]: 300 nM; IC50 [2, 6]: 450 nM; IC50 [2, 7]: 390 nM; IC50 [2, 8]: 438 nM
16 | Cc1oc2cc(O)ccc2c(=O)c1-c1ccc(F)cc1 | + | + | 
17 | COc1c(-c2ccco2)oc2ccccc2c1=O | + | + | 
18 | O=CNc1ccc2c(c1)[nH]c1cc(OCCOCCF)ccc12 [CB-024, N-(7-(2-(2-fluoroethoxy)ethoxy)-9H-carbazol-2-yl)formamide] |  |  | IC50 [2, 7]: 540 nM; IC50 [2, 8]: 540 nM
19 | Cc1c(-c2ccccc2)oc2cc(O)ccc2c1=O | + | + | 
20 | O=c1cc(-c2ccccc2)c2ccc(O)c(O)c2o1 | +++++ | +++ | 
21 | O=c1c(O)c(-c2ccccc2)[nH]c2ccccc12 | ++++ | ++ | 
22 | Cc1nccc2c1[nH]c1cc(O)ccc12 [drawing 32] | ++ | + | 
23 | Nc1ccc2[nH]c(C(F)(F)F)nc2c1 | ++ | + | 

Row | Compound | BINDING LEVELS TO Aβ(1-42) Oligomers/Polymers [1] | BINDING LEVELS TO Aβ(1-42) Fibrils (Aβ(1-42) Fibrils) | further results
24 | CC1NCCc2cc(O)c(O)cc21 (stereo not drawn) | ++ | + | 
25 | CCOc1ccc(Oc2c(C)oc3cc(O)ccc3c2=O)cc1 | + | − | 
26 | CN(C)c1ccc2c(c1)[nH]c1cc(OCCOCCOCCF)ccc12 [CB-007, 7-(2-(2-(2-fluoroethoxy)ethoxy)ethoxy)-N,N-dimethyl-9H-carbazol-2-amine] |  |  | IC50 [2, 9]: 260 nM; IC50 [2, 10]: 170 nM; IC50 [2, 5]: 200 nM; IC50 [2, 6]: 290 nM; IC50 [2, 11]: 300 nM; IC50 [2, 8]: 244 nM
27 | Oc1ccc(-c2nc(-c3ccncc3)c(-c3ccc(F)cc3)[nH]2)cc1 | ++ | ++ | 
28 | O=c1c(O)c(-c2ccccc2)oc2ccc(O)cc12 | +++ | ++ | 
29 | Cc1nccc2c1[nH]c1cc(O)ccc12 [drawing 134] |  |  | Binding to oligomers/polymers (Aβ1-42) [1]: ++; Binding to fibrils (Aβ1-42) (Aβ(1-42) Fibrils): +
30 | CNc1ccc2c(c1)[nH]c1cc(OCCOCCOCCF)ccc12 [CB-004, 7-(2-(2-(2-fluoroethoxy)ethoxy)ethoxy)-N-methyl-9H-carbazol-2-amine] |  |  | IC50 [2, 9]: 260 nM; IC50 [2, 10]: 350 nM; IC50 [2, 5]: 300 nM; IC50 [2, 6]: 300 nM; IC50 [2, 11]: 400 nM; IC50 [2, 8]: 322 nM
31 | COc1cccc2oc(-c3ccccc3)cc(=O)c12 | + | − | 
32 | Oc1ccc2c(c1)[nH]c1ccccc12 [drawing 135] |  |  | Binding to oligomers/polymers (Aβ1-42) [1]: +++; Binding to fibrils (Aβ1-42) (Aβ(1-42) Fibrils): +
33 | Fc1cc(F)cc(-c2cn(-c3ccc(F)cc3F)nn2)c1 | ++++ | − | 
34 | O=c1c(O)c(-c2ccc(O)c(O)c2)oc2cc(O)ccc12 | ++++++ | +++++ | 
35 | [11CH3]Nc1ccc(-c2nc3ccc(O)cc3s2)cc1 [PiB, reference compound] |  |  | blocking of [18F]-CB001 staining [3]: blocks [18F]-CB001 staining with increasing concentrations
36 | Cc1oc2c(C)c(O)ccc2c(=O)c1-c1nncn1-c1ccccc1 | ++ | − | 
37 | Cc1ccc(O)c(-c2ccno2)c1 | + | + | 
38 | Fc1ccc(-c2nc(-c3ccccc3)c(-c3ccccc3)[nH]2)cc1 |  | − | 
39 | CCc1cc2c(=O)c(-c3ccc(F)cc3)c(C)oc2cc1O | + | − | 
40 | Fc1cc(F)cc(-c2cn(-c3cc(Cl)ccc3Cl)nn2)c1 | + | − | 
41 | Oc1ccc2c(c1)[nH]c1ccccc12 [drawing 33] | +++ | + | 
42 | O=CNc1ccc2c(c1)[nH]c1cc(OCCOCCOCCF)ccc12 [CB-010, N-(7-(2-(2-(2-fluoroethoxy)ethoxy)ethoxy)-9H-carbazol-2-yl)formamide] |  |  | IC50 [2, 4]: 900 nM; IC50 [2, 8]: 900 nM
43 | Fc1ccc(-c2cn(-c3ccc(Cl)c(Cl)c3)nn2)c(F)c1 | + | − | 
44 | COc1cccc(-c2oc3cc(OC)ccc3c(=O)c2OC)c1 | + | − | 
45 | COc1ccc2c(=O)c(-c3ccccc3)c(C)oc2c1OC | + | − | 

From patent US20110046378A1, “Novel Imaging Agents for Detecting Neurological Dysfunction” (SIEMENS MEDICAL SOLUTIONS USA, INC., priority 2008, published 2011)
